Laboratory results: patent publication US10479780B2, “Aminopyrazole derivatives” (Chugai Seiyaku Kabushiki Kaisha, priority 2015, dated 2019)

What was measured:
Assay type in all cases: biochemical
[1] = target: T1, human Yes1 enzyme (Homo sapiens, UniProt P07947); experiment: Yes1 enzyme inhibitory activity (time-resolved fluorometry, biotinylated peptide phosphorylation); settings: read-out: YES_IC50
T1 construct: made in house
Summary of the method: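 Inhibition was expressed against a compound-free control to give IC50, using TR-FRET read-out (Eu-cryptate anti-pTyr antibody, streptavidin-XL665).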

[2] = target: T2, human Src enzyme (Homo sapiens, UniProt P12931); experiment: Src enzyme inhibitory activity (time-resolved fluorometry, biotinylated peptide phosphorylation); settings: read-out: SRC_IC50
T2 construct: purchased Carna Biosciences, Inc. 08-173
T2 sequence (P12931 whole entry): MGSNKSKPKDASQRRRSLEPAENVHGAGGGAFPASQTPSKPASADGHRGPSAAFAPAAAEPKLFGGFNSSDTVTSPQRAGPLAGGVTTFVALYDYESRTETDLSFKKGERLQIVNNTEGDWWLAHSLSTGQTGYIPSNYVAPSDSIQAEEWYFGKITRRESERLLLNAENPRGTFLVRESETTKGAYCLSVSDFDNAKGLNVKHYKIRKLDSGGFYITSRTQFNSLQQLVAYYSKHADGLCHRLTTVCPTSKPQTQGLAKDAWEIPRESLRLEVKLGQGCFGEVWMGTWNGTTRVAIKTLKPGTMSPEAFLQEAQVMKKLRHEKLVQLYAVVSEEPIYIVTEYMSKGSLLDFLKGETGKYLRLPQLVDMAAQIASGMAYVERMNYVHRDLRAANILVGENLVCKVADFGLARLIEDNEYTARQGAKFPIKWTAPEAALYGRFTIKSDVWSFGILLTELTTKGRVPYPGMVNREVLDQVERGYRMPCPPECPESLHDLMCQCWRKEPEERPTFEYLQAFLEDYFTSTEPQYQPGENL
Summary of the method: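 Compounds were tested for blocking tyrosine phosphorylation of a biotinylated peptide substrate by recombinant human Src. Phosphorylated product was quantified by time-resolved fluorometry using europium cryptate and XL665 conjugates, and IC50 was calculated against the compound-free control.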

[3] = target: T3, human Lck enzyme (Homo sapiens, UniProt P06239); experiment: Lck enzyme inhibitory activity (time-resolved fluorometry, biotinylated peptide phosphorylation); settings: read-out: LCK_IC50
T3 construct: purchased Carna Biosciences, Inc. 08-170
T3 sequence (P06239 whole entry): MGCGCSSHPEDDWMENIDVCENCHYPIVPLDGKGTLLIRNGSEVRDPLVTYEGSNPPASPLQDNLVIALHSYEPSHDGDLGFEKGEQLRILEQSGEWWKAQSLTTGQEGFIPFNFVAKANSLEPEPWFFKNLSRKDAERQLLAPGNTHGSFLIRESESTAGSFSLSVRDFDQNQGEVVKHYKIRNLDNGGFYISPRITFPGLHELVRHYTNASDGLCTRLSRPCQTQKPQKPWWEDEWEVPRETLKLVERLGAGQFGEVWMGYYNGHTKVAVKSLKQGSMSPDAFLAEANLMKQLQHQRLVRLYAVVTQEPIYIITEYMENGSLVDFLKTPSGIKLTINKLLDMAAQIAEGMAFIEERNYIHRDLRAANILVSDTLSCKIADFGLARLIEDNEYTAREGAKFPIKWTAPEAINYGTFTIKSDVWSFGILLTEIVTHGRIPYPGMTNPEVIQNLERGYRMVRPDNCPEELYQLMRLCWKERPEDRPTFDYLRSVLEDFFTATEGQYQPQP
Summary of the method: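 Readout pairs a europium cryptate-labelled anti-phosphotyrosine antibody with XL665-streptavidin, measured by time-resolved fluorescence. IC50 derived from percent inhibition against untreated controls.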

T1 sequence (P07947 whole entry): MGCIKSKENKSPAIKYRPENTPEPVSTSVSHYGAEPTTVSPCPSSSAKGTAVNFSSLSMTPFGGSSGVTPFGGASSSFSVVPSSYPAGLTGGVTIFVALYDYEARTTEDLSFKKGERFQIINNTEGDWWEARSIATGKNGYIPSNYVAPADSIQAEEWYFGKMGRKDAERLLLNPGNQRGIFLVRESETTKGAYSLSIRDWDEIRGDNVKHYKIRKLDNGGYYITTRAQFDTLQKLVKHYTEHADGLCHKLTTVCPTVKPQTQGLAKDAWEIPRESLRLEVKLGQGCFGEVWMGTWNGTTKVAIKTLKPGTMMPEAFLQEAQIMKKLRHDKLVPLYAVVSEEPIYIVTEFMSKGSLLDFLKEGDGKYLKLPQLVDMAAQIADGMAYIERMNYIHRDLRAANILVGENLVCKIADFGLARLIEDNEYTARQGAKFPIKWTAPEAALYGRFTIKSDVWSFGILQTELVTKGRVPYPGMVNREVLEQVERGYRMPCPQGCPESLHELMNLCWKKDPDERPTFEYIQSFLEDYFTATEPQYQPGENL

Row | IC50 [1] [nM] | IC50 [2] [nM] | IC50 [3] [nM] | SMILES
1 | 12 | 120 | 31 | Cc1cc2cc(C(=O)c3cnn(-c4ccc(Oc5ccccc5F)cc4C)c3N)[nH]c2cc1N1C(=O)[C@@H]2C[C@H](NC(=O)OCC3c4ccccc4-c4ccccc43)CN2C1=O [Example 5-1-268, 9H-fluoren-9-ylmethyl N-[(6S,7aS)-2-[2-[5-amino-1-[4-(2-fluorophenoxy)-2-methylphenyl]pyrazole-4-carbonyl]-5-methyl-1H-indol-6-yl]-1,3-dioxo-5,6,7,7a-tetrahydropyrrolo[1,2-c]imidazol-6-yl]carbamate]
2 | 2 | 110 | 23 | Cc1cc2cc(C(=O)c3cnn(-c4cnc(Oc5c(F)cccc5F)cc4C)c3N)[nH]c2cc1NS(=O)(=O)C1CCOCC1 [Example 5-1-269, N-[2-[5-amino-1-[6-(2,6-difluorophenoxy)-4-methylpyridin-3-yl]pyrazole-4-carbonyl]-5-methyl-1H-indol-6-yl]oxane-4-sulfonamide]
3 | 4.7 | 130 | 28 | Cc1cc(Oc2ccccc2F)ccc1-n1ncc(C(=O)c2cc3cc(OCC(F)F)c(N4C(=O)[C@@H]5C[C@@H](NC(=O)OCC6c7ccccc7-c7ccccc76)CN5C4=O)cc3[nH]2)c1N [Example 5-1-270, 9H-fluoren-9-ylmethyl N-[(6R,7aS)-2-[2-[5-amino-1-[4-(2-fluorophenoxy)-2-methylphenyl]pyrazole-4-carbonyl]-5-(2,2-difluoroethoxy)-1H-indol-6-yl]-1,3-dioxo-5,6,7,7a-tetrahydropyrrolo[1,2-c]imidazol-6-yl] carbamate]
4 | 0.51 | 7.2 | 3.2 | Cc1cc(Oc2ccccc2F)ccc1-n1ncc(C(=O)c2cc3cc(OCC(F)F)c(N4C(=O)NC5(CCNCC5)C4=O)cc3[nH]2)c1N [Example 5-1-271, 3-[2-[5-amino-1-[4-(2-fluorophenoxy)-2-methylphenyl]pyrazole-4-carbonyl]-5-(2,2-difluoroethoxy)-1H-indol-6-yl]-1,3,8-triazaspiro [4.5]decane-2,4-dione]
5 | 0.65 | 7.8 | 4.2 | Cc1cc(Oc2ccccc2F)ccc1-n1ncc(C(=O)c2cc3cc(OCC(F)F)c(N4C(=O)NC5(CCN(C6COC6)CC5)C4=O)cc3[nH]2)c1N [Example 5-1-272, 3-[2-[5-amino-1-[4-(2-fluorophenoxy)-2-methylphenyl]pyrazole-4-carbonyl]-5-(2,2-difluoroethoxy)-1H-indol-6-yl]-8-(oxetan-3-yl)-1,3,8-triazaspiro[4.5]decane-2,4-dione]
6 | 1.8 | 33 | 15 | Cc1cc(Oc2ccccc2F)ccc1-n1ncc(C(=O)c2cc3cc(OCC(F)F)c(N4C(=O)[C@@H]5C[C@H](NC(=O)OCc6ccccc6)CN5C4=O)cc3[nH]2)c1N [Example 5-1-273, Benzyl N-[(6S,7aS)-2-[2-[5-amino-1-[4-(2-fluorophenoxy)-2-methylphenyl]pyrazole-4-carbonyl]-5-(2,2-difluoroethoxy)-1H-indol-6-yl]-1,3-dioxo-5,6,7,7a-tetrahydropyrrolo[1,2-c]imidazol-6-yl]carbamate]
7 | 2.1 | 45 | 17 | Cc1cc(Oc2ccccc2F)ccc1-n1ncc(C(=O)c2cc3cc(OCC(F)F)c(N4C(=O)[C@@H]5C[C@H](NC(=O)OCC(C)C)CN5C4=O)cc3[nH]2)c1N [Example 5-1-274, 2-methylpropyl N-[(6S,7aS)-2-[2-[5-amino-1-[4-(2-fluorophenoxy)-2-methylphenyl]pyrazole-4-carbonyl]-5-(2,2-difluoroethoxy)-1H-indol-6-yl]-1,3-dioxo-5,6,7,7a-tetrahydropyrrolo[1,2-c]imidazol-6-yl]carbamate]
8 | 0.64 | 19 | 7 | Cc1cc(Oc2ccccc2F)ccc1-n1ncc(C(=O)c2cc3cc(OCC(F)F)c(N4C(=O)[C@@H]5C[C@H](NS(=O)(=O)Cc6ccccc6)CN5C4=O)cc3[nH]2)c1N [Example 5-1-275, N-[(6S,7aS)-2-[2-[5-amino-1-[4-(2-fluorophenoxy)-2-methylphenyl]pyrazole-4-carbonyl]-5-(2,2-difluoroethoxy)-1H-indol-6-yl]-1,3-dioxo-5,6,7,7a-tetrahydropyrrolo[1,2-c]imidazol-6-yl]-1-phenylmethanesulfonamide]
9 | 2.2 | 87 | 35 | Cc1cc(Oc2ccccc2F)ccc1-n1ncc(C(=O)c2cc3cc(OCC(F)F)c(N4C(=O)[C@@H]5C[C@H](NS(=O)(=O)c6ccc7ccccc7c6)CN5C4=O)cc3[nH]2)c1N [Example 5-1-276, N-[(6S,7aS)-2-[2-[5-amino-1-[4-(2-fluorophenoxy)-2-methylphenyl]pyrazole-4-carbonyl]-5-(2,2-difluoroethoxy)-1H-indol-6-yl]-1,3-dioxo-5,6,7,7a-tetrahydropyrrolo[1,2-c]imidazol-6-yl]naphthalene-2-sulfonamide]
10 | 1.5 | 39 | 12 | Cc1cc(Oc2ccccc2F)ccc1-n1ncc(C(=O)c2cc3cc(OCC(F)F)c(N4C(=O)NC5(CCN(Cc6ccccc6)CC5)C4=O)cc3[nH]2)c1N [Example 5-1-277, 3-[2-[5-amino-1-[4-(2-fluorophenoxy)-2-methylphenyl]pyrazole-4-carbonyl]-5-(2,2-difluoroethoxy)-1H-indol-6-yl]-8-benzyl-1,3,8-triazaspiro[4.5]decane-2,4-dione]
11 | 1.2 | 23 | 8.7 | Cc1cc(Oc2ccccc2F)ccc1-n1ncc(C(=O)c2cc3cc(OCC(F)F)c(N4C(=O)[C@@H]5C[C@H](NC(=O)OCc6ccco6)CN5C4=O)cc3[nH]2)c1N [Example 5-1-278, furan-2-ylmethyl ((6S,7aS)-2-(2-(5-amino-1-(4-(2-fluorophenoxy)-2-methylphenyl)-1H-pyrazole-4-carbonyl)-5-(2,2-difluoroethoxy)-1H-indol-6-yl)-1,3-dioxohexahydro-1H-pyrrolo[1,2-c]imidazol-6-yl)carbamate]
12 | 14 | 910 | 170 | Cc1cc(Oc2ccccc2F)ccc1-n1ncc(C(=O)c2cc3cc(OCC(F)F)c(NC(=O)OCC4c5ccccc5-c5ccccc54)cc3[nH]2)c1N [Example 5-1-279, 9H-fluoren-9-ylmethyl N-[2-[5-amino-1-[4-(2-fluorophenoxy)-2-methylphenyl]pyrazole-4-carbonyl]-5-(2,2-difluoroethoxy)-1H-indol-6-yl] carbamate]
13 | 1.8 | 80 | 31 | Cc1cc(Oc2ccccc2F)ccc1-n1ncc(C(=O)c2cc3cc(C(C)C)c(NS(=O)(=O)CCCF)cc3[nH]2)c1N [Example 5-1-280, N-[2-[5-amino-1-[4-(2-fluorophenoxy)-2-methylphenyl]pyrazole-4-carbonyl]-5-propan-2-yl-1H-indol-6-yl]-3-fluoropropane-1-sulfonamide]
14 | 1.9 | 140 | 27 | Cc1cc2cc(C(=O)c3cnn(-c4cnc(Oc5c(F)cccc5F)cc4C)c3N)[nH]c2cc1NS(=O)(=O)C1CCOC1 (stereo not drawn) [Example 5-1-281, N-[2-[5-amino-1-[6-(2,6-difluorophenoxy)-4-methylpyridin-3-yl]pyrazole-4-carbonyl]-5-methyl-1H-indol-6-yl]oxolane-3-sulfonamide]
15 | 4.8 | 200 | 120 | Cc1cc(Oc2ccccc2F)ccc1-n1ncc(C(=O)c2cc3cc(C(C)C)c(NS(=O)(=O)C4CCOCC4)cc3[nH]2)c1N [Example 5-1-282, N-[2-[5-amino-1-[4-(2-fluorophenoxy)-2-methylphenyl]pyrazole-4-carbonyl]-5-propan-2-yl-1H-indol-6-yl]oxane-4-sulfonamide]
16 | 2 | 270 | 32 | Cc1cc(-n2ncc(C(=O)c3cc4cc(OC5CCN(C6CS(=O)(=O)C6)CC5)c(-c5cncnc5)cc4[nH]3)c2N)ccc1Oc1ccccc1F [Example 5-1-283, [5-amino-1-[4-(2-fluorophenoxy)-3-methylphenyl]pyrazol-4-yl]-[5-[1-(1,1-dioxothietan-3-yl)piperidin-4-yl]oxy-6-pyrimidin-5-yl-1H-indol-2-yl]methanone]
17 | 1.1 | 11 | 6.9 | Cc1cc(Oc2c(F)cccc2F)ncc1-n1ncc(C(=O)c2cc3cc(OC4CCN(C5CS(=O)(=O)C5)CC4)c(-c4cncnc4)cc3[nH]2)c1N [Example 5-1-284, [5-amino-1-[6-(2,6-difluorophenoxy)-4-methylpyridin-3-yl]pyrazol-4-yl]-[5-[1-(1,1-dioxothietan-3-yl)piperidin-4-yl]oxy-5-pyrimidin-5-yl-1H-indol-2-yl]methanone]
18 | 5.2 | 2300 | 500 | Cc1cc(-n2ncc(C(=O)c3cc4cc(OC5CCN(C6CCCC6)CC5)c(-c5ccccc5Cl)cc4[nH]3)c2N)ccc1Oc1ccccc1F [Example 5-1-285, [5-amino-1-[4-(2-fluorophenoxy)-3-methylphenyl]pyrazol-4-yl]-[6-(2-chlorophenyl)-5-(1-cyclopentylpiperidin-4-yl)oxy-1H-indol-2-yl]methanone]
19 | 2.3 | 30 | 5.3 | Cc1cc2cc(C(=O)c3cnn(-c4cnc(Oc5c(F)cccc5F)cc4C)c3N)[nH]c2cc1N1C(=O)NC(C)(C)C1=O [Example 5-1-286, 3-[2-[5-amino-1-[6-(2,6-difluorophenoxy)-4-methylpyridin-3-yl]pyrazole-4-carbonyl]-5-methyl-1H-indol-6-yl]-5,5-dimethylimidazolidine-2,4-dione]
